System: Lox-IMVI melanoma cell line
Assay: Lox-IMVI anti-proliferative assay (growth inhibition, Cell Titer-Glo)
Assay type: cell-based, human
Details: Homo sapiens; Lox-IMVI anti-proliferative assay, IC50 activity level; read-out: Activity
Method in brief: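 IC50 values reflect the concentration giving 50% of DMSO-control luminescence after 72 h of treatment, fitted with a four-parameter logistic model. Cells were cultured in RPMI + 10% FBS with compound from 0.5 nM to 10 μM.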

SMILES | IC50
COC(=O)N1CCCC(Nc2ncc3nc(Nc4c(F)cccc4F)n([C@H]4CC[C@@H](C(N)=O)CC4)c3n2)C1 (stereo partly drawn) [Example 404, (R)-methyl 3-(9-((1s,4S)-4-carbamoylcyclohexyl)-8-(2,6-difluorophenylamino)-9H-purin-2-ylamino)piperidine-1-carboxylate] | > 1000 nM
COC(=O)N1CCCC(Nc2ncc3nc(Nc4c(Cl)cccc4Cl)n([C@H]4CC[C@@H](C(N)=O)CC4)c3n2)C1 (stereo partly drawn) [Example 405, (R)-methyl 3-(9-((1s,4S)-4-carbamoylcyclohexyl)-8-(2,6-dichlorophenylamino)-9H-purin-2-ylamino)piperidine-1-carboxylate] | > 1000 nM
COC(=O)N1CCCC(Nc2ncc3nc(Nc4c(F)cccc4Cl)n([C@H]4CC[C@@H](C(N)=O)CC4)c3n2)C1 (stereo partly drawn) [Example 406, (R)-methyl 3-(9-((1s,4S)-4-carbamoylcyclohexyl)-8-(2-chloro-6-fluorophenylamino)-9H-purin-2-ylamino)piperidine-1-carboxylate] | > 1000 nM
COC(=O)N1CCC[C@@H](Nc2ncc3nc(Nc4c(F)cc(F)cc4Cl)n([C@H]4CC[C@@H](C(N)=O)CC4)c3n2)C1 [Example 407, (R)-methyl 3-(9-((1s,4S)-4-carbamoylcyclohexyl)-8-(2-chloro-4,6-difluorophenylamino)-9H-purin-2-ylamino)piperidine-1-carboxylate] | > 1000 nM
COC(=O)N1CCC[C@@H](Nc2ncc3nc(Nc4c(F)cc(Cl)cc4F)n([C@H]4CC[C@@H](C(N)=O)CC4)c3n2)C1 [Example 408, (R)-methyl 3-(9-((1s,4S)-4-carbamoylcyclohexyl)-8-(4-chloro-2,6-difluorophenylamino)-9H-purin-2-ylamino)piperidine-1-carboxylate] | 500 to 1000 nM
COC(=O)N1CCC[C@@H](Nc2ncc3nc(Nc4c(Cl)cc(Cl)cc4Cl)n([C@H]4CC[C@@H](C(N)=O)CC4)c3n2)C1 [Example 409, (R)-methyl 3-(9-((1s,4S)-4-carbamoylcyclohexyl)-8-(2,4,6-trichlorophenylamino)-9H-purin-2-ylamino)piperidine-1-carboxylate] | 500 to 1000 nM
COC(=O)N1CCC[C@@H](Nc2ncc3nc(Nc4c(Cl)cc(F)cc4Cl)n([C@H]4CC[C@@H](C(N)=O)CC4)c3n2)C1 [Example 410, (R)-methyl 3-(9-((1s,4S)-4-carbamoylcyclohexyl)-8-(2,6-dichloro-4-fluorophenylamino)-9H-purin-2-ylamino)piperidine-1-carboxylate] | > 1000 nM
COC(=O)N1CCC[C@@H](Nc2ncc3nc(Nc4ccc(Cl)c(F)c4F)n([C@H]4CC[C@@H](C(N)=O)CC4)c3n2)C1 [Example 411, (R)-methyl 3-(9-((1s,4S)-4-carbamoylcyclohexyl)-8-(4-chloro-2,3 difluorophenylamino)-9H-purin-2-ylamino)piperidine-1-carboxylate] | > 1000 nM
COC(=O)N1CCCC(Nc2ncc3nc(Nc4c(F)cc(Cl)cc4Cl)n([C@H]4CC[C@@H](C(N)=O)CC4)c3n2)C1 (stereo partly drawn) [Example 412, (R)-methyl 3-(9-((1s,4S)-4-carbamoylcyclohexyl)-8-(2,4-dichloro-6-fluorophenylamino)-9H-purin-2-ylamino)piperidine-1-carboxylate] | 250 to 500 nM
COC(=O)N1CCCC(Nc2ncc3nc(Nc4c(F)ccc(Cl)c4F)n([C@H]4CC[C@@H](C(N)=O)CC4)c3n2)C1 (stereo partly drawn) [Example 413, (R)-methyl 3-(9-((1s,4S)-4-carbamoylcyclohexyl)-8-(3-chloro-2,6-difluorophenylamino)-9H-purin-2-ylamino)piperidine-1-carboxylate] | > 1000 nM
NC(=O)[C@H]1CC[C@@H](n2c(Nc3c(Cl)cc(Cl)cc3Cl)nc3cnc(N[C@@H]4CCC[C@@H](O)C4)nc32)CC1 [Example 415, (1S,4s)-4-(2-((1R,3R)-3-hydroxycyclohexylamino)-8-(2,4,6-trichlorophenylamino)-9H-purin-9-yl)cyclohexanecarboxamide] | 500 to 1000 nM
NC(=O)[C@H]1CC[C@@H](n2c(Nc3c(F)cccc3Cl)nc3cnc(N[C@@H]4CCC[C@@H](O)C4)nc32)CC1 [Example 416, (1S,4s)-4-(8-(2-chloro-6-fluorophenylamino)-2-((1R,3R)-3-hydroxycyclohexylamino)-9H-purin-9-yl)cyclohexanecarboxamide] | > 1000 nM
NC(=O)[C@H]1CC[C@@H](n2c(Nc3c(Cl)cccc3Cl)nc3cnc(N[C@@H]4CCC[C@@H](O)C4)nc32)CC1 [Example 417, (1S,4s)-4-(8-(2,6-dichlorophenylamino)-2-((1R,3R)-3-hydroxycyclohexylamino)-9H-purin-9-yl)cyclohexanecarboxamide] | > 1000 nM
NC(=O)[C@H]1CC[C@@H](n2c(Nc3c(F)cc(F)cc3F)nc3cnc(N[C@@H]4CCC[C@@H](O)C4)nc32)CC1 [Example 418, (1S,4s)-4-(2-((1R,3R)-3-hydroxycyclohexylamino)-8-(2,4,6-trifluorophenylamino)-9H-purin-9-yl)cyclohexanecarboxamide] | > 1000 nM
NC(=O)[C@H]1CC[C@@H](n2c(Nc3c(F)cccc3F)nc3cnc(N[C@@H]4CCC[C@@H](O)C4)nc32)CC1 [Example 419, (1S,4s)-4-(8-(2,6-difluorophenylamino)-2-((1R,3R)-3-hydroxycyclohexylamino)-9H-purin-9-yl)cyclohexanecarboxamide] | > 1000 nM
NC(=O)[C@H]1CC[C@@H](n2c(Nc3c(F)cc(F)cc3Cl)nc3cnc(N[C@@H]4CCC[C@@H](O)C4)nc32)CC1 [Example 420, (1S,4s)-4-(8-(2-chloro-4,6-difluorophenylamino)-2-((1R,3R)-3-hydroxycyclohexylamino)-9H-purin-9-yl)cyclohexanecarboxamide] | > 1000 nM
NC(=O)[C@H]1CC[C@@H](n2c(Nc3c(F)cc(Cl)cc3F)nc3cnc(N[C@@H]4CCC[C@@H](O)C4)nc32)CC1 [Example 421, (1S,4s)-4-(8-(4-chloro-2,6-difluorophenylamino)-2-((1R,3R)-3-hydroxycyclohexylamino)-9H-purin-9-yl)cyclohexanecarboxamide] | > 1000 nM
NC(=O)[C@H]1CC[C@@H](n2c(Nc3c(F)cc(Cl)cc3Cl)nc3cnc(N[C@@H]4CCC[C@@H](O)C4)nc32)CC1 [Example 422, (1S,4s)-4-(8-(2,4-dichloro-6-fluorophenylamino)-2-((1R,3R)-3-hydroxycyclohexylamino)-9H-purin-9-yl)cyclohexanecarboxamide] | 500 to 1000 nM
NC(=O)[C@H]1CC[C@@H](n2c(Nc3c(Cl)cc(F)cc3Cl)nc3cnc(N[C@@H]4CCC[C@@H](O)C4)nc32)CC1 [Example 423, (1S,4s)-4-(8-(2,6-dichloro-4-fluorophenylamino)-2-((1R,3R)-3-hydroxycyclohexylamino)-9H-purin-9-yl)cyclohexanecarboxamide] | 500 to 1000 nM
C[C@]1(O)CCC[C@@H](Nc2ncc3nc(Nc4c(Cl)cccc4Cl)n([C@H]4CC[C@@H](C(N)=O)CC4)c3n2)C1 [Example 424, (1S,4s)-4-(8-(2,6-dichlorophenylamino)-2-((1R,3S)-3-hydroxy-3-methylcyclohexylamino)-9H-purin-9-yl)cyclohexanecarboxamide] | > 1000 nM
C[C@]1(O)CCC[C@@H](Nc2ncc3nc(Nc4c(F)cc(F)cc4Cl)n([C@H]4CC[C@@H](C(N)=O)CC4)c3n2)C1 [Example 425, (1S,4s)-4-(8-(2-chloro-4,6-difluorophenylamino)-2-((1R,3S)-3-hydroxy-3-methylcyclohexylamino)-9H-purin-9-yl)cyclohexanecarboxamide] | > 1000 nM
C[C@]1(O)CCC[C@@H](Nc2ncc3nc(Nc4c(F)cc(Cl)cc4F)n([C@H]4CC[C@@H](C(N)=O)CC4)c3n2)C1 [Example 426, (1S,4s)-4-(8-(4-chloro-2,6-difluorophenylamino)-2-((1R,3S)-3-hydroxy-3-methylcyclohexylamino)-9H-purin-9-yl)cyclohexanecarboxamide] | > 1000 nM
C[C@]1(O)CCC[C@@H](Nc2ncc3nc(Nc4c(F)cc(Cl)cc4Cl)n([C@H]4CC[C@@H](C(N)=O)CC4)c3n2)C1 [Example 427, (1S,4s)-4-(8-(2,4-dichloro-6-fluorophenylamino)-2-((1R,3S)-3-hydroxy-3-methylcyclohexylamino)-9H-purin-9-yl)cyclohexanecarboxamide] | 500 to 1000 nM
C[C@]1(O)CCC[C@@H](Nc2ncc3nc(Nc4c(Cl)cc(F)cc4Cl)n([C@H]4CC[C@@H](C(N)=O)CC4)c3n2)C1 [Example 428, (1S,4s)-4-(8-(2,6-dichloro-4-fluorophenylamino)-2-((1R,3S)-3-hydroxy-3-methylcyclohexylamino)-9H-purin-9-yl)cyclohexanecarboxamide] | > 1000 nM
C[C@]1(O)CCC[C@@H](Nc2ncc3nc(Nc4ccc(F)cc4Cl)n([C@H]4CC[C@@H](C(N)=O)CC4)c3n2)C1 [Example 429, (1S,4s)-4-(8-(2-chloro-4-fluorophenylamino)-2-((1R,3S)-3-hydroxy-3-methylcyclohexylamino)-9H-purin-9-yl)cyclohexanecarboxamide] | > 1000 nM
CC(C)Nc1ncc2nc(Nc3c(F)cc(C#N)cc3Cl)n([C@H]3CC[C@@H](C(N)=O)CC3)c2n1 [Example 430, (1s,4s)-4-(8-(2-chloro-4-cyano-6-fluorophenylamino)-2-(isopropylamino)-9H-purin-9-yl)cyclohexanecarboxamide] | 500 to 1000 nM
CC(C)Nc1ncc2nc(Nc3c(Cl)cc(C#N)cc3Cl)n([C@H]3CC[C@@H](C(N)=O)CC3)c2n1 [Example 431, (1s,4s)-4-(8-(2,6-dichloro-4-cyanophenylamino)-2-(isopropylamino)-9H-purin-9-yl)cyclohexanecarboxamide] | 500 to 1000 nM
CC[C@@H](CO)Nc1ncc2nc(Nc3c(Cl)cc(C#N)cc3Cl)n([C@H]3CC[C@@H](C(N)=O)CC3)c2n1 [Example 432, (1R,4s)-4-(8-(2,6-dichloro-4-cyanophenylamino)-2-((S)-1-hydroxybutan-2-ylamino)-9H-purin-9-yl)cyclohexanecarboxamide] | 500 to 1000 nM

Reference: patent US11590139B2, “Substituted aminopurine compounds, compositions thereof, and methods of treatment therewith” (Signal Pharmaceuticals, LLC, priority 2014, dated 2023)
